Measured values from the supplement of paper PMC4977894.
Structures can show the parent of a compound that is named as a salt. ± gives the standard deviation of the averaged measurements.

Experiments:
[1] = test system: Homo sapiens (human subject panel, olfactory perception); experiment: perceived odor intensity rating (rating 0-100); higher = stronger perceived smell
Outline: (§1)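 Stimuli were molecules diluted in paraffin oil at high and low concentrations, with 1 mL of each sniffed in randomized order across ten visits of 100 stimuli. Participants were 55 healthy humans aged 18–50, excluding the six lowest performers. Subjects who smelled a stimulus moved a computerized slider away from its starting point of 50, and positions were rescaled to 0–100. Familiarity, intensity and pleasantness are each reported as an average over subjects.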

[2] = test system: Homo sapiens (human subject panel, olfactory perception); experiment: perceived odor pleasantness rating (rating 0-100); higher = more pleasant
Outline: as §1

[3] = test system: Homo sapiens (human subject panel, olfactory perception); experiment: perceived odor familiarity rating (rating 0-100); higher = more familiar
Outline: as §1

[4] = odor dilution in paraffin oil: 1/1,000
[5] = odor dilution in paraffin oil: 1/100,000
[6] = odor dilution in paraffin oil: 1/10
[7] = odor dilution in paraffin oil: 1/10,000,000

Row | Structure (SMILES) | perceived odor intensity rating [1, 4] | perceived odor intensity rating [1, 5] | perceived odor pleasantness rating [2, 4] | perceived odor pleasantness rating [2, 5] | perceived odor familiarity rating [3, 4] | perceived odor familiarity rating [3, 5] | perceived odor intensity rating [1, 6] | perceived odor pleasantness rating [2, 6] | perceived odor familiarity rating [3, 6] | perceived odor intensity rating [1, 7] | perceived odor pleasantness rating [2, 7] | perceived odor familiarity rating [3, 7]
1 | CC(=O)C(=O)O [Pyruvic Acid] | 70.6 ± 23 | 37.7 ± 32 | 39.1 ± 28 | 53.4 ± 24 | 52.1 ± 29 | 44.5 ± 29 | – | – | – | – | – | –
2 | c1ccc2ncccc2c1 [Quinoline] | 80.7 ± 18 | 56.4 ± 27 | 22.4 ± 24 | 34.1 ± 24 | 47.7 ± 34 | 41.4 ± 26 | – | – | – | – | – | –
3 | O.O.O=P([O-])([O-])O.[Na+].[Na+] [Sodium phosphate dibasic] | 24.1 ± 25 | – | 46.2 ± 26 | – | 31.5 ± 24 | – | 27.2 ± 27 | 63.4 ± 26 | 40.5 ± 32 | – | – | –
4 | O=C(O)CCC(=O)O [Succinic acid] | 32.3 ± 27 | – | 36.1 ± 21 | – | 35.5 ± 32 | – | 46.2 ± 35 | 34.6 ± 24 | 35.5 ± 25 | – | – | –
5 | CC1=CCC(C(C)(C)OC=O)CC1 (stereo unspecified) [Terpinyl formate] | 42.2 ± 30 | 14.6 ± 20 | 37.8 ± 26 | 46.9 ± 30 | 45.6 ± 31 | 28.1 ± 26 | – | – | – | – | – | –
6 | CC(=O)OCC1CCCO1 (stereo unspecified) [Tetrahydrofurfuryl acetate] | 55.6 ± 24 | 17 ± 24 | 40.6 ± 26 | 49.1 ± 26 | 42.4 ± 28 | 27.8 ± 24 | – | – | – | – | – | –
7 | OCC1CCCO1 (stereo unspecified) [Tetrahydrofurfuryl alcohol] | 29.6 ± 27 | 18.4 ± 23 | 42.7 ± 25 | 45.1 ± 22 | 30.3 ± 29 | 40.3 ± 28 | – | – | – | – | – | –
8 | Cc1ncc(C[n+]2csc(CCO)c2C)c(N)n1 [Thiamine hydrochloride] | 61.6 ± 25 | – | 36.4 ± 22 | – | 44.7 ± 28 | – | 67.1 ± 23 | 35.5 ± 25 | 51.5 ± 29 | – | – | –
9 | c1cscn1 [Thiazole] | 25.1 ± 27 | 18.8 ± 22 | 43.2 ± 24 | 45.5 ± 21 | 41.3 ± 29 | 27.2 ± 25 | – | – | – | – | – | –
10 | c1ccsc1 [Thiophene (replicate)] | 66.4 ± 25 | 27.6 ± 31 | 33.7 ± 27 | 36 ± 22 | 53.9 ± 31 | 42.1 ± 26 | – | – | – | – | – | –
11 | c1ccsc1 [Thiophene] | 32.8 ± 34 | 39.5 ± 30 | 28.7 ± 20 | 40.8 ± 24 | 39.3 ± 29 | 43.1 ± 30 | – | – | – | – | – | –
12 | CC(=O)OCC(COC(C)=O)OC(C)=O [Triacetin] | 45.1 ± 30 | – | 38.9 ± 24 | – | 39.2 ± 35 | – | 57.8 ± 29 | 33.1 ± 25 | 54.5 ± 35 | – | – | –
13 | CCCCOC(=O)CC(CC(=O)OCCCC)(OC(C)=O)C(=O)OCCCC [Tributyl-2-Acetylcitrate] | 6.93 ± 11 | – | 51.5 ± 23 | – | 37.7 ± 28 | – | 41.4 ± 30 | 43.2 ± 22 | 35.9 ± 28 | – | – | –
14 | CCCC(=O)OCC(COC(=O)CCC)OC(=O)CCC [Tributyrin] | 68.8 ± 28 | 31.9 ± 29 | 22.2 ± 22 | 39.5 ± 23 | 49.9 ± 30 | 36.9 ± 30 | – | – | – | – | – | –
15 | CCOC(=O)CC(O)(CC(=O)OCC)C(=O)OCC [Triethyl citrate] | 20.4 ± 24 | – | 46.2 ± 24 | – | 26.4 ± 22 | – | 31.3 ± 30 | 41.1 ± 19 | 41.4 ± 29 | – | – | –
16 | NCCc1ccc(O)cc1 [Tyramine] | 20.4 ± 25 | – | 58 ± 26 | – | 35.4 ± 34 | – | 53.2 ± 33 | 34.7 ± 28 | 51 ± 31 | – | – | –
17 | CCCCCCCCCCC(=O)O [Undecanoic acid] | 57.4 ± 33 | – | 31.1 ± 24 | – | 41.9 ± 34 | – | 81.8 ± 19 | 22.9 ± 21 | 45.9 ± 32 | – | – | –
18 | COc1cc(C=O)ccc1OC(C)=O [Vanillin Acetate] | 54.6 ± 27 | – | 72.5 ± 22 | – | 65.3 ± 28 | – | 64.3 ± 26 | 74.3 ± 22 | 69.6 ± 28 | – | – | –

Row | Structure (SMILES) | perceived odor intensity rating [1, 4] | perceived odor intensity rating [1, 5] | perceived odor pleasantness rating [2, 4] | perceived odor pleasantness rating [2, 5] | perceived odor familiarity rating [3, 4] | perceived odor familiarity rating [3, 5] | perceived odor intensity rating [1, 6] | perceived odor pleasantness rating [2, 6] | perceived odor familiarity rating [3, 6] | perceived odor intensity rating [1, 7] | perceived odor pleasantness rating [2, 7] | perceived odor familiarity rating [3, 7]
19 | COc1ccc(C=O)cc1OC [Veratraldehyde] | 35.2 ± 29 | – | 62.4 ± 22 | – | 53 ± 28 | – | 74.1 ± 23 | 75.3 ± 22 | 75.1 ± 26 | – | – | –
20 | CCCCC1OC(=O)CC1C (stereo unspecified) [Whiskey lactone] | 71.3 ± 23 | 51.8 ± 29 | 69.7 ± 22 | 60.2 ± 27 | 62.2 ± 30 | 50.6 ± 33 | – | – | – | – | – | –
21 | CC=O [acetaldehyde] | 40.5 ± 31 | 21.8 ± 26 | 45 ± 22 | 54 ± 24 | 37.4 ± 29 | 41.4 ± 31 | – | – | – | – | – | –
22 | CC(=O)O [acetic acid] | – | 21.2 ± 25 | – | 47.8 ± 24 | – | 42 ± 32 | – | – | – | 11.8 ± 16 | 46.1 ± 18 | 35.5 ± 32
23 | CC(C)=O [acetone] | 30 ± 29 | – | 51.2 ± 24 | – | 38.8 ± 31 | – | 37 ± 32 | 56.6 ± 25 | 40.6 ± 28 | – | – | –
24 | CC(=O)c1ccccc1 [acetophenone] | 81.5 ± 17 | 45.1 ± 29 | 52.8 ± 30 | 52.7 ± 26 | 61.3 ± 31 | 42.6 ± 30 | – | – | – | – | – | –
25 | C=CCOC(=O)CCCCC [allyl hexanoate] | 57.3 ± 29 | 24.9 ± 27 | 71.8 ± 22 | 49.2 ± 19 | 64.1 ± 27 | 34.4 ± 29 | – | – | – | – | – | –
26 | CC(=O)OC(C)(C)Cc1ccccc1 [alpha,alpha-Dimethylphenethyl acetate] | 36.6 ± 30 | – | 52.5 ± 21 | – | 40.3 ± 30 | – | 79 ± 17 | 51.9 ± 31 | 48.8 ± 32 | – | – | –
27 | CCCCCC(C=O)=Cc1ccccc1 [alpha-Amylcinnamaldehyde] | 54.4 ± 32 | – | 33.2 ± 26 | – | 36 ± 27 | – | 65.5 ± 29 | 43.5 ± 27 | 45.1 ± 31 | – | – | –
28 | CC(O)c1ccccc1 (stereo not drawn) [alpha-Methylbenzyl alcohol] | 48.4 ± 30 | 15.4 ± 16 | 50.4 ± 26 | 44.5 ± 23 | 45 ± 32 | 30.4 ± 30 | – | – | – | – | – | –
29 | CC1=CCC2CC1C2(C)C (stereo not drawn) [alpha-pinene] | 61.4 ± 26 | 27.9 ± 30 | 45.6 ± 26 | 54.4 ± 21 | 46.6 ± 31 | 41.4 ± 29 | – | – | – | – | – | –
30 | COc1ccccc1 [anisole] | 75.3 ± 24 | 30.9 ± 30 | 29.3 ± 26 | 50.2 ± 26 | 45 ± 34 | 35.4 ± 33 | – | – | – | – | – | –
31 | O=Cc1ccccc1 [benzaldehyde] | 77.4 ± 17 | 30.6 ± 29 | 61.5 ± 29 | 64.6 ± 22 | 61.3 ± 27 | 45.3 ± 34 | – | – | – | – | – | –
32 | O=C(c1ccccc1)c1ccccc1 [benzophenone] | 24.9 ± 29 | – | 57.5 ± 25 | – | 33.2 ± 28 | – | 67.7 ± 27 | 36.2 ± 24 | 38.6 ± 31 | – | – | –
33 | CC(=O)OCc1ccccc1 [benzyl acetate] | 65.8 ± 29 | 36.3 ± 28 | 60.4 ± 25 | 54.7 ± 20 | 52.3 ± 33 | 42.3 ± 27 | – | – | – | – | – | –
34 | OCc1ccccc1 [benzyl alcohol] | 45.4 ± 26 | – | 52.4 ± 20 | – | 40.2 ± 25 | – | 74.2 ± 18 | 46.7 ± 25 | 55 ± 29 | – | – | –
35 | NCCC(=O)O [beta-Alanine] | 33.9 ± 25 | – | 50.2 ± 26 | – | 40.9 ± 30 | – | 38.4 ± 28 | 50.1 ± 22 | 35.9 ± 30 | – | – | –
36 | CC(=O)/C=C/C1=C(C)CCCC1(C)C [beta-Ionone] | 69.7 ± 25 | 50.6 ± 32 | 49.2 ± 27 | 62.6 ± 25 | 52.4 ± 30 | 49.8 ± 31 | – | – | – | – | – | –
